Patent US20240391958A1, “KEANUMYCINS AND USES THEREOF IN MEDICINE AND PLANT PROTECTION” (Leibniz-Institut für Naturstoff-Forschung und …, priority 2023, published 2024)
Where a SMILES comes first, the peptide text is derived from it. Bridges are numbered along the chain shown (N, C = ends). [ ]: non-standard residue; d: D form. The star is where a group is joined. X1 = CCCCCCCCCCCC[C@@H](O)[C@@H](O)CC(=O)*; Asp(3S-OH) = N[C@H](C(=O)O)[C@H](O)C(=O)O; Thr(4-Cl) = N[C@H](C(=O)O)[C@H](O)CCl; aThr = C[C@H](O)[C@H](N)C(=O)O; d(hSer) = N[C@H](CCO)C(=O)O; dDab = NCC[C@@H](N)C(=O)O; Dab = NCC[C@H](N)C(=O)O; Dhb = C/C=C(\N)C(=O)O

Tests used:
[1] = tested on: D. discoideum cells (AX2); test: Amoebicidal activity against D. discoideum (cell count, CASY); format: cell-based; details: Dictyostelium discoideum; 72 h, 22 °C, average of two experiments
Method: Amoebicidal activity of keanumycin A against D. discoideum was determined using a previously published method. In brief, 3000 D. discoideum cells (AX2) were cultured in 96-well plates (Sarstedt) in 200 μL HL5 medium containing 1% DMSO (Carl Roth) and a specified amount of compound (starting from 0.5 μM; 2-fold serial dilution) in triplicates at 22° C. After 72 h the cell concentration was determined according to the manufacturers instruction using a CASY® Cell Counter+Analyser System (Model TT, Roche Innovatis AG) equipped with a 60 μm capillary and the evaluation cursor set to 7.5-17.5 μm. The viable cell concentration (including standard deviation) was plotted against the logarithmic concentration of the compound and the IC50 value was determined using PRISM (GraphPad, Version 5.03).

[2] = tested on: C. albicans; test: Genome-wide microarray, transcription rate change; format: cell-based, Candida albicans; details: sublethal concentration, 1-h exposure, vs nontreated
[3] = tested on: human vaginal epithelial cells A431; test: Toxicity to uninfected vaginal epithelial cells (LDH); format: cell-based; details: A431 cells without infection, 24 hours
Method: (§1) FIGS. 7A-7B show in 7A) Keanumycin A protected human vaginal epithelial cells in C. albicans infection model. Micrograph depicts % damage to human vaginal epithelial cells A431 (y-axis) in the presence of keanumycin A at varied concentrations (x-axis) as estimated by LDH cytotoxicity assay after 24 hours of infection or treatment. LDH absorbance was normalized to C. albicans infected and uninfected controls. Keanumycin A protected vaginal cells from damage by C. albicans at a narrow concentration range from 4-8 μg/ml (black line). Keanumycin A was toxic to vaginal cells at concentrations above 8 μg/ml (grey line) (N=3). […] Vaginal epithelial cells were lysed after 24-hour infection, and fungal viability was measured by XTT absorbance, normalized to C. albicans infected and uninfected controls (N=2) […]
(§2) Overnight culture of C. albicans strain SC5314 grown in YPD at 30° C., shaking at 180 RPM was harvested, washed twice with PBS. […] Epithelial damage was measured 24 hours after infection by collecting and diluting the supernatant 1:10 in PBS and measuring the lactate dehydrogenase (LDH) activity with the Roche Cytotoxicity Detection Kit (LDH) as per manufacturer's instructions. The absorbance (490 nm) values are represented as percentage damage, which is normalized to the low control, where medium only is 0% damage, and high control, where C. albicans infection is 100% damage. […]

[4] = tested on: human vaginal epithelial cells A431 infected with C. albicans; test: C. albicans vaginal epithelial infection model, epithelial damage (LDH); format: cell-based; details: 24 hours of infection, tested 1-16 μg/ml
Method: as §1, §2

[5] = tested on: HAC1 mRNA; test: Splicing of HAC1 mRNA (Ire1-Hac1 UPR pathway); format: cell-based, Candida albicans; details: compared to positive tunicamycin control
Text: (§3) To see if keanumycin A triggers the same canonical Ire1-Hac1 UPR pathway, the inventors looked at the splicing of HAC1 mRNA, which is regulated by Ire1. […] Since no other specific signaling pathway stood out, the inventors screened homozygous knockout mutants for significant growth differences in the absence and presence of a sublethal concentration of the NRLP. […] PLB5 is an important gene for phospholipid homeostasis and PMT6 codes for a transmembrane protein mannosyltransferase, which is involved in the construction of the outmost mannan cell wall layer in C. albicans.

[6] = tested on: C. albicans; test: Fungal viability in vaginal epithelial infection model (XTT); format: cell-based, Candida albicans; details: XTT absorbance after 24-hour infection, N=2
Method: as §1, §2

[7] = tested on: Candida albicans; test: Disk diffusion test; format: cell-based; details: 1 mg/mL in MeOH, 50 μL per 9 mm hole, 24 h 37 °C
Method: (§4) A qualitative screen of different microorganisms was performed using a disk diffusion test. Each microorganism was plated on Mueller Hinton agar plates and 9 mm holes were punched out. The respective compounds were dissolved in the indicated solvent to yield solutions of specified concentrations. 50 μL of the respective solutions were placed in each hole. The plates were incubated for 24 h at 37° C. After incubation, the size of inhibition zones was determined.

[8] = tested on: Pseudomonas aeruginosa SG 137; test: Disk diffusion test; format: cell-based; details: 1 mg/mL in MeOH, 50 μL per 9 mm hole, 24 h 37 °C
Method: as §4

[9] = tested on: Penicillium notatum; test: Disk diffusion test; format: cell-based; details: 1 mg/mL in MeOH, 50 μL per 9 mm hole, 24 h 37 °C; methanol alone 10 mm
Method: as §4

[10] = tested on: C. albicans homozygous knockout mutants; test: Screen of homozygous knockout mutants for growth differences; format: cell-based, Candida albicans; details: absence vs presence of a sublethal concentration
Text: as §3

**Q.** Which results are given for C/C=C1\NC(=O)[C@H]([C@H](C)O)NC(=O)[C@H](CCN)NC(=O)[C@@H](CCO)NC(=O)CNC(=O)[C@@H](CCN)NC(=O)[C@@H](NC(=O)C[C@H](O)[C@H](O)CCCCCCCCCCCC)COC(=O)[C@H]([C@H](O)CCl)NC(=O)[C@H]([C@H](O)C(=O)O)NC1=O [Keanumycin A, keanumycin A] (X1-S[dDab]G[d(hSer)][Dab][aThr][Dhb][Asp(3S-OH)][Thr(4-Cl)]; ester 1-C)?
**A.** IC50 [1]: 4.4 nM; transcription rate change, ERG3 ([2]; ergosterol biosynthesis): −1.83 log2-fold change; transcription rate change, IPT1 ([2]; sphingolipid biosynthesis): −0.44 log2-fold change; transcription rate change, ORM1 ([2]; sphingolipid biosynthesis): 0.55 log2-fold change; transcription rate change, SCS7/FAH1 ([2]; sphingolipid biosynthesis): −1.10 log2-fold change; transcription rate change, SYR2/SUR2 ([2]; sphingolipid biosynthesis): 0.66 log2-fold change; concentrations toxic to vaginal cells [3]: above 8 μg/ml; concentration range protecting vaginal cells from damage by C. albicans [4]: 4 to 8 µg/mL; splicing of HAC1 mRNA [5]: could not observe splicing in HAC1 mRNA; % fungal viability of C. albicans in infection model [6]: reduced C. albicans viability; Inhibition area diameter [7]: 30 mm; Inhibition area diameter [8]: 0 mm; Inhibition area diameter [9]: 26 mm; growth differences of knockout mutants [10]: most prominent growth differences were observed for Δmkc1, Δplb5, and Δpmt6
